Test results as given in US7553864B2, “Compounds for the treatment of inflammatory disorders and microbial diseases” (Schering Corporation, priority 2005, dated 2009).

Tested on: LpxC enzyme
Assay: LpxC enzyme assay (RapidFire high-throughput mass spectrometry)
Format: biochemical
Procedure, shortened: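 0.2 nM enzyme with 1.0 μM UDP-3-O-(R-3-hydroxymyristoyl)-N-acetylglucosamine in 25 mM HEPES pH 7.3, 150 mM NaCl, 2.0 mM DTT, 0.01% BSA, 2% DMSO; 60 min at room temperature, quenched with HCl. Substrate and product quantified by RapidFire mass spectrometry; percent conversion gives percent inhibition versus DMSO control.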

[1] = concentration 0.10 (unit not given)
[2] = concentration 0.20 (unit not given)
[3] = concentration 0.39 (unit not given)
[4] = concentration 0.78 (unit not given)
[5] = concentration 1.56 (unit not given)
[6] = concentration 3.13 (unit not given)
[7] = concentration 6.25 (unit not given)
[8] = concentration 12.50 (unit not given)
[9] = concentration 25 (unit not given)
[10] = concentration 50 (unit not given)

Structure (SMILES) | LpxC enzyme assay rating (% inhibition at indicated concentrations) [1] | LpxC enzyme assay rating (% inhibition at indicated concentrations) [2] | LpxC enzyme assay rating (% inhibition at indicated concentrations) [3] | LpxC enzyme assay rating (% inhibition at indicated concentrations) [4] | LpxC enzyme assay rating (% inhibition at indicated concentrations) [5] | LpxC enzyme assay rating (% inhibition at indicated concentrations) [6] | LpxC enzyme assay rating (% inhibition at indicated concentrations) [7] | LpxC enzyme assay rating (% inhibition at indicated concentrations) [8] | LpxC enzyme assay rating (% inhibition at indicated concentrations) [9] | LpxC enzyme assay rating (% inhibition at indicated concentrations) [10]
O=C(Nc1ccc(C#Cc2ccccc2)cc1)[C@H](O)[C@@H](O)C(=O)N1CCCC1 [Compound 63] | B (10-30% inhibition) | B (10-30% inhibition) | B (10-30% inhibition) | C (less than 10% inhibition) | B (10-30% inhibition) | B (10-30% inhibition) | B (10-30% inhibition) | A (greater than 30% inhibition) | A (greater than 30% inhibition) | A (greater than 30% inhibition)
O=C(Nc1ccc(-c2ccccc2)cc1)[C@H](O)[C@@H](O)C(=O)N1CCCC1 [Compound 64] | B (10-30% inhibition) | B (10-30% inhibition) | C (less than 10% inhibition) | B (10-30% inhibition) | C (less than 10% inhibition) | B (10-30% inhibition) | B (10-30% inhibition) | B (10-30% inhibition) | B (10-30% inhibition) | B (10-30% inhibition)
O=C(Nc1ccc(-c2ccc(C(F)(F)F)cc2)cc1)[C@H](O)[C@@H](O)C(=O)N1CCCC1 [Compound 65] | B (10-30% inhibition) | B (10-30% inhibition) | B (10-30% inhibition) | C (less than 10% inhibition) | B (10-30% inhibition) | B (10-30% inhibition) | B (10-30% inhibition) | B (10-30% inhibition) | B (10-30% inhibition) | B (10-30% inhibition)
CCCCc1ccc(NC(=O)[C@H](O)[C@@H](O)C(=O)N2CCCC2)cc1 [Compound 66] | C (less than 10% inhibition) | C (less than 10% inhibition) | B (10-30% inhibition) | C (less than 10% inhibition) | B (10-30% inhibition) | B (10-30% inhibition) | B (10-30% inhibition) | B (10-30% inhibition) | A (greater than 30% inhibition) | B (10-30% inhibition)
CCCc1ccc(NC(=O)[C@H](O)[C@@H](O)C(=O)N2CCCC2)cc1 [Compound 67] | B (10-30% inhibition) | B (10-30% inhibition) | B (10-30% inhibition) | C (less than 10% inhibition) | C (less than 10% inhibition) | C (less than 10% inhibition) | B (10-30% inhibition) | C (less than 10% inhibition) | B (10-30% inhibition) | B (10-30% inhibition)
CCC(C)c1ccc(NC(=O)[C@H](O)[C@@H](O)C(=O)N2CCCC2)cc1 (stereo partly drawn) [Compound 68] | C (less than 10% inhibition) | C (less than 10% inhibition) | C (less than 10% inhibition) | C (less than 10% inhibition) | C (less than 10% inhibition) | B (10-30% inhibition) | B (10-30% inhibition) | C (less than 10% inhibition) | B (10-30% inhibition) | B (10-30% inhibition)
O=C([C@H](O)[C@@H](O)C(=O)N1CCC(c2ccc(C(F)(F)F)cc2)CC1)N1CCCC1 [Compound 69] | C (less than 10% inhibition) | C (less than 10% inhibition) | C (less than 10% inhibition) | C (less than 10% inhibition) | C (less than 10% inhibition) | C (less than 10% inhibition) | C (less than 10% inhibition) | C (less than 10% inhibition) | C (less than 10% inhibition) | C (less than 10% inhibition)
O=C([C@H](O)[C@@H](O)C(=O)N1CCC(c2ccc3ccccc3c2)CC1)N1CCCC1 [Compound 70] | C (less than 10% inhibition) | C (less than 10% inhibition) | C (less than 10% inhibition) | B (10-30% inhibition) | C (less than 10% inhibition) | C (less than 10% inhibition) | C (less than 10% inhibition) | C (less than 10% inhibition) | B (10-30% inhibition) | C (less than 10% inhibition)
O=C(Nc1ccc(Oc2ccccc2)cc1)[C@H](O)[C@@H](O)C(=O)N1CCCC1 [Compound 71] | B (10-30% inhibition) | C (less than 10% inhibition) | B (10-30% inhibition) | B (10-30% inhibition) | B (10-30% inhibition) | B (10-30% inhibition) | C (less than 10% inhibition) | C (less than 10% inhibition) | C (less than 10% inhibition) | C (less than 10% inhibition)
CN1CCN(c2ccc(NC(=O)[C@H](O)[C@@H](O)C(=O)N3CCCC3)cc2)CC1 [Compound 72] | B (10-30% inhibition) | C (less than 10% inhibition) | C (less than 10% inhibition) | C (less than 10% inhibition) | C (less than 10% inhibition) | C (less than 10% inhibition) | C (less than 10% inhibition) | C (less than 10% inhibition) | C (less than 10% inhibition) | B (10-30% inhibition)
CN(C)CCOc1ccc(NC(=O)[C@H](O)[C@@H](O)C(=O)N2CCCC2)cc1 [Compound 73] | C (less than 10% inhibition) | B (10-30% inhibition) | C (less than 10% inhibition) | B (10-30% inhibition) | C (less than 10% inhibition) | C (less than 10% inhibition) | C (less than 10% inhibition) | C (less than 10% inhibition) | C (less than 10% inhibition) | C (less than 10% inhibition)
CN(C)CCCOc1ccc(NC(=O)[C@H](O)[C@@H](O)C(=O)N2CCCC2)cc1 [Compound 74] | B (10-30% inhibition) | C (less than 10% inhibition) | C (less than 10% inhibition) | C (less than 10% inhibition) | B (10-30% inhibition) | B (10-30% inhibition) | C (less than 10% inhibition) | C (less than 10% inhibition) | C (less than 10% inhibition) | C (less than 10% inhibition)
